Earlier results as cited in patent US6399104B1, “Pharmaceutical compositions” (AstraZeneca UK Limited, priority 1997, dated 2002).

Conditions: as disclosed in U.S. Pat. No. 5,319,097

bioavailability: good bioavailability
SMILES: COc1cc(C(=O)NS(=O)(=O)c2ccccc2C)ccc1Cc1cn(C)c2ccc(NC(=O)OC3CCCC3)cc12 [Form A, N-[4-[5-(cyclopentyloxycarbonyl)amino-1-methylindol-3-ylmethyl]-3-methoxybenzoyl]-2-methylbenzene]
